Experimental findings from patent US20220249415A1, “COMPOSITION OF AZELAIC ACID HAVING ADIPOSE TRIGLYCERIDE HYDROLYSIS EFFECT” (Korea University Research and Business Foundation, priority 2018, published 2022) are described below.

Molecules are shown by their SMILES. Entries after “also recorded” stand apart in the source; their conditions may differ.

Data set [1] has as its system 3T3-L1 adipocytes. Briefly: MTT assay, cytotoxicity of azelaic acid. Format: cell-based, mouse. The following applies: azelaic acid up to 500 μM, 24 hours. As for the experimental part:
In order to evaluate cytotoxicity of azelaic acid, MTT assay was performed.
The MTT assay is a test method using an ability of mitochondria reducing MTT tetrazolium, a yellow water-soluble substrate, to a blue purple water-insoluble MTT formazane […]. An MTT reagent was prepared by diluting C18H16BrN5S (Thiazoly Blue Tetrazolium Bromide) in phosphate buffered saline (PBS) at a concentration of 2 to 5 mg/ml.
First, after the 3T3-L1 adipocytes (4×10^5 cells/ml) were seeded in a 96-well plate and cultured at 37° C. under 5% CO2 conditions for 24 hours, the cultured 3T3-L1 adipocytes were treated with azelaic acid in a concentration range of 0 to 500 μM and cultured for 24 hours. After 100 μL of the MTT reagent was added to each test sample at a concentration of 4 mg/mL and cultured at 37° C. under 5% CO2 conditions for 4 hours, 100 μL of dimethyl sulfoxide (DMSO) was added thereto, and absorbance was measured at 540 nm. An absorbance value is to quantify an apoptotic effect due to toxicity using the principle that absorbance is in proportion to the number of living cells.

For data set [2], the system named is 3T3-L1 adipocytes. Kind of data set: cAMP assay (ELISA kit) in 3T3-L1 adipocytes. The format is cell-based, mouse. The conditions noted are these: 50 μM azelaic acid, 18 hours. As to the method: Therefore, changes in concentrations of cAMP, IP-one (metabolite of IP3), and calcium, which are second messengers by azelaic acid corresponding to the Olfr544 ligand, in 3T3-L1 adipocytes were measured. Since IP3 has low stability to thereby be easily decomposed to IP-one, an amount of intracellular IP-One (metabolite of IP3) was quantified instead of IP3.
cAMP assay uses the principle to estimate a production amount of cAMP corresponding to a second messenger of a GPCR receptor activated by a ligand using a cAMP standard calibration curve. A 96-well plate included in a cAMP assay ELISA kit (Enzo Life science, New York, U.S.) was coated with a G×R IgG antibody, and after cAMP of a blue solution for obtaining the standard calibration curve was bound to alkaline phosphatase, the color of the blue solution was changed to yellow by a rabbit antibody. When alkaline phosphatase was activated by adding a pNpp substrate to a well bound to cAMP, a color change occurred, such that the concentration of cAMP may be measured at a wavelength of 405 nm using colorimetric analysis. In the present experiment, 1×10^4 3T3-L1 adipocytes were seeded in each well of the 96-well plate and differentiated, and then treated with 50 μM azelaic acid and 1 μM Foskolin corresponding to a positive control for 18 hours. Then, the concentration of cAMP was measured by the method described above.
(In general: cAMP levels reflect the balance of adenylyl cyclase and phosphodiesterase activity.)

Data set [3] concerns 3T3-L1 adipocytes in which the Olfr544 gene was knocked-down. Briefly: cAMP, PKA activity and HSL phosphorylation in adipocytes in which Olfr544 gene was knocked-down. The following applies: Olfr544 shRNA transfected adipocytes treated with azelaic acid for 2 hours. Format: cell-based, mouse. The text has this:
After the Olfr544 gene was knocked-down in the mouse adipocytes, cAMP assay was confirmed by the method described in Example 4, PKA activity was confirmed by the method described in Example 5, and phosphorylation of HSL protein was confirmed by the method described in Example 6.

Data set [4] shares this test system. Kind of data set: Lipolysis (glycerol) in adipocytes in which Olfr544 gene was knocked-down. Format: cell-based, mouse. The following applies: Olfr544 shRNA transfected adipocytes treated with azelaic acid for 2 hours. As to the method:
After the Olfr544 gene was knocked-down in the mouse adipocytes, the adipocytes were treated with azelaic acid, and whether or not a triglyceride hydrolysis effect of azelaic acid was maintained was confirmed.

Another data set addresses T1, OR2S2 (Homo sapiens, UniProt Q9NQN1).
T1 construct: endogenous in cells; host or cells: HepG2
T1 sequence (Q9NQN1 1-319): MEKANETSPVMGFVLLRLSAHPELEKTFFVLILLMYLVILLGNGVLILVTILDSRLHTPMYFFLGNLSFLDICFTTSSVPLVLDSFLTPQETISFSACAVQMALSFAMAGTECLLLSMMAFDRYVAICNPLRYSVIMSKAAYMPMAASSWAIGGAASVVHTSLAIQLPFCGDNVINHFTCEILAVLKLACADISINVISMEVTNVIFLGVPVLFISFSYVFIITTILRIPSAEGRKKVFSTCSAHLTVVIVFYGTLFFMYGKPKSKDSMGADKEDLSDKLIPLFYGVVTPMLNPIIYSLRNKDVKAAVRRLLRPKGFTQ
Kind of data set: siRNA knock-down of OR2S2 in HepG2 cells, fatty acid oxidation-related gene expression. The format is cell-based. The conditions noted are these: HepG2 cells during knock-down of OR2S2. From the text: (§1) The gene expression of OR1E1, OR1K1, OR2K2, OR2S2, OR13C5, and OR51E2, corresponding to the top 6 receptors among 10 human olfactory receptors selected to be expressed in both adipose tissue and liver tissue while interacting with azelaic acid, was knocked down with siRNA in human-derived liver cell and adipocyte lines, namely HepG2 cells and hAMSC cells, respectively. Here, siRNAs that were used were OR1E2 siRNA (sc-93932), OR1K2 (sc-92810), OR2K2 (sc-92852), OR2S2 (sc-92505), OR13C5 (sc-92899), and OR51E2 (sc-76265), purchased from Santa Cruz Biotechnology Inc. (Dallas, Tx USA).
(§2) After knock-down treatment, the cell lines were treated with azelaic acid, and triglyceride hydrolysis and fatty acid oxidation-related gene expression in HepG2 cells as a human-derived liver cell line and hAMSC cells as a human-derived adipocyte line were measured.

The target of the next data set is T2, OR2K2 (Homo sapiens, UniProt Q8NGT1).
T2 construct: endogenous in cells; host or cells: HepG2
T2 sequence (Q8NGT1 1-316): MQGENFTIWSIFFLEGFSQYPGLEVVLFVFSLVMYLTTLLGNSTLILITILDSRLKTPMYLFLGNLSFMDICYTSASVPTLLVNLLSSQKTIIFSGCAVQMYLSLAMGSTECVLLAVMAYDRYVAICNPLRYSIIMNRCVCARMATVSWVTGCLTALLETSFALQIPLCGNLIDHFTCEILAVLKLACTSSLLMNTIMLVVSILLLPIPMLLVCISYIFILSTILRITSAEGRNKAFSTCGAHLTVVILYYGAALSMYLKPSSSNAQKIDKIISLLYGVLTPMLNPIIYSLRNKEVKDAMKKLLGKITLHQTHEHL
Briefly: siRNA knock-down of OR2K2 in hAMSC cells, lipolysis. Format: cell-based. The following applies: treated with azelaic acid.
Excerpt: as §1, §2

A further data set deals with HepG2 cells. Briefly: qPCR of anti-obesity gene in HepG2 cells, with OR2K2 knock-down. The format is cell-based, human. As for the experimental part:
In-vitro equivalence confirmation: HepG2 cells, which are a human liver tissue cell line, and hAMSC cells, which are a human adipocyte line, were treated with azelaic acid and the anti-obesity gene was measured through a qPCR method.

For `O=C(O)CCCCCCCC(=O)O` [azelaic acid, nonanedioic acid], the “cytotoxicity (MTT assay)” value in the data set with 3T3-L1 adipocytes [1] is “cytotoxicity was not observed; also recorded: toxicity was not exhibited”. Also, the “concentration of intracellular cAMP” value with 3T3-L1 adipocytes [2] was “significantly increased”. For the same compound, the cAMP-PKA-HSL signaling pathway result in data set [3] was “all inactivated”. Besides, in data set [4], the concentration of glycerol result is recorded as “no change”. Further, the “expression of fatty acid oxidation-related genes (PPARa, CTP1, Acox2) upon treatment with azelaic acid” value at OR2S2 is reported as “did not change”. Moreover, the “lipolytic effect, knock-down group compared to control group” value on OR2K2 is recorded as “statistically significantly decreased”. Moreover, the “effect on gene expression when the OR2K2 gene was knocked down” value with HepG2 cells (human liver tissue cell line (HepG2)) is given as “disappear”. Moreover, the “fatty acid oxidation gene expression (qPCR)” value with HepG2 cells (liver tissue cells (HepG2) treated with azelaic acid) is given as “increased”.
